Assay results published in article PMC9612231, “Antileishmanial Anthracene Endoperoxides: Efficacy In Vitro, Mechanisms and Structure-Activity Relationships” (Molecules, 2022).

Experiments:
[1] = Formation of the xylenol orange/Fe3+ complex by EP; conditions: for Log10 (Formation Rate) / XO/Fe^3+ Formation Rate: AcEP and 250 µM FeSO4 in methanol/H2O (9:1); for XO/Fe^3+ Formation Rate: mean ± SD of 3 experiments
Excerpt: In subsequent experiments, we explored the activation of EP and possible cellular consequences of these compounds in Leishmania. In a chemical system, we tested how fast EP react with iron (II) and, therefore, lead to the activation of these compounds. Resulting iron (III) was detected as complex with xylenol orange (XO, Figure 3). The reaction rate of the EP stretched across two magnitudes of orders (Table 3). On the first view, there is no direct link between the activation rates and the efficiency of the compounds against Leishmania.
XO (125 µM) and butylated hydroxytoluene (4 mM) were dissolved in MeOH/H2O (9:1). FeSO4 (25 mM) in 2.5 M H2SO4 was prepared immediately before use (final concentration of 250 µM FeSO4 in the color reagent). An aliquot of 100 µL EP solution (final concentration of 100 µM) was transferred into a disposable cuvette (BRAND, Wertheim, Germany), and 1 mL of the color reagent was added. The EP that reacted slower were incubated for 0, 30, 60, and 90 min at 25 °C. The EP that reacted faster were measured every 5 s over 5 min. At these time points, the OD difference of the sample at 560 nm and 650 nm was determined using a MS1501 UV–VIS diode array spectrophotometer (Shimadzu, Kyoto, Japan). As reference, a mixture of MeOH/H2O (9:1) was used. The slope of the reaction rate was calculated using an extinction coefficient of 1.5 × 10^4 M^−1 cm^−1.

[2] = test system: Leishmania tarentolae promastigotes (LtP); experiment: LtP viability combination assay with NAC or PIH; format: cell-based; conditions: 2 × 10^6 LtP/mL; for Change of IC50 value in LtP by addition of PIH: 50 µM PIH; for Change of IC50 value in LtP by addition of NAC: 2 mM NAC
Excerpt: Based on the findings from chemical test systems, we studied the actual activation of these EP compounds in LtP. For this purpose, we used the established viability assays for Leishmania and studied how IC50 values were changed by the presence of the typical radical scavenger N-acetyl cysteine (NAC) or the iron chelator for low molecular iron pyridoxal isonicotinoyl hydrazine (PIH). We expressed the changes of the IC50 values in the presence of these additional compounds in percent, referring to the original IC50 values in LtP set to 100% (Figure 8). […] Likewise, in the presence of the iron chelator PIH, the IC50 values of most EP in LtP shifted to higher values.
Assay medium of YEM (20.7 g/L yeast extract powder, 1.2 g/L K2HPO4, 0.2 g/L KH2PO4, 2.9 g/L glucose, pH 7.4) and PBS (1:1, v/v), 25,000 U/L penicillin, 25 mg/L streptomycin, and 7.7 µM hemin was prepared. Aliquots of 200 µL of this medium and 2 × 10^6 LtP/mL (where required) were distributed in non-treated cell culture 96-well plates. Compounds (dissolved in DMSO) were added with starting concentrations of 25 µM (Pen) or 200 µM (AcEP/Ac), and then, serial dilutions were carried out resulting in a set of concentrations (25, 5, 1, 0.2, 0.04, and 0.008 µM) or (200, 40, 8, 1.6, 0.32, and 0.064 µM). For each compound concentration, at least triplicates on each plate were performed. After incubation of the plates at 27 °C for 48 h, 50 µL of resazurin solution (final concentration in wells 20 µM) was added to each well and after 4 h of incubation, the fluorescence was measured at 560 nm excitation and 590 nm emission using a plate reader (Perkin Elmer EnSpire, Rodgau, Germany) (adapted from). Combination assays for viability in the presence of PIH and NAC were performed the same way. However, one half of the plate was filled with YEM/PBS with 2 × 10^6 LtP/mL, and the other half of the plate was filled with YEM/PBS with 2 × 10^6 LtP/mL supplemented with non-toxic concentrations of PIH (50 µM) or NAC (2 mM), so that for each plate, two compounds were tested with and without the presence of PIH or NAC. All tests were repeated at least on four different weeks of cultivation.

[3] = UV detection of cycloreversion (thermal decomposition) of AcEP; format: physicochemical; conditions: 40 µM AcEP in EtOH at 70 °C over up to 23 h, UV spectra
Description: To determine EP decomposition, we recorded at first the UV spectra of the parent Ac compound and then observed the spectral changes of the corresponding EP during incubation in EtOH (Figure 7). […] Spectral changes in these compounds rather indicate other decomposition pathways.
A sample of the corresponding Ac in 1.5 mL EtOH (final concentrations 2, 8, or 10 µM) was transferred into a quartz cuvette and measured by an UV–VIS spectrometer (U3300, Hitachi, Tokyo, Japan) at 70 °C. Afterwards, an aliquot of the corresponding AcEP dissolved in EtOH (final concentration 40 µM) was pipetted into a cuvette, and its UV spectra were measured at 70 °C in a time interval of 1 h over a period of 23 h. After measurements, the re-appearance of the Ac absorption pattern was verified.

| SMILES | Change of IC50 value in LtP by addition of PIH [2] | Log10 (Formation Rate) [1] | XO/Fe^3+ Formation Rate [1] | Change of IC50 value in LtP by addition of NAC [2] | Cycloreversion to the parent Ac compound (thermal decomposition) [3] | Activation by iron (II), in words ([1]; XO assay) |
| --- | --- | --- | --- | --- | --- | --- |
| C[n+]1ccc(C23OOC(c4cc[n+](C)cc4)(c4ccccc42)c2ccccc23)cc1 [Compound 1062MeAcEP] | increase of IC50 values | 2.78 | 609 ± 27 nmol/min | higher IC50 values in the presence of the thiol NAC |  |  |
| c1ccc(C23OOC(c4ccccn4)(c4ccccc42)c2ccccc23)nc1 [oPyAcEP] | no increase was observed | 4.91 | 81,700 ± 11,921 nmol/min | higher IC50 values in the presence of the thiol NAC | did not undergo conversion to the parent Ac compound |  |

Further lines, with some results ahead:

| Change of IC50 value in LtP by addition of PIH [2] | SMILES | Log10 (Formation Rate) [1] | XO/Fe^3+ Formation Rate [1] | Change of IC50 value in LtP by addition of NAC [2] | Cycloreversion to the parent Ac compound (thermal decomposition) [3] | Activation by iron (II), in words ([1]; XO assay) |
| --- | --- | --- | --- | --- | --- | --- |
| increase of IC50 values | c1ccc(C23OOC(c4ccccc4)(c4ccccc42)c2ccccc23)cc1 [DPAcEP] | 2.83 | 677 ± 86 nmol/min | did not respond, but rather displayed even lower IC50 values | clear reformation of the parent Ac compound over time |  |
| increase of IC50 values | CC(C)(C)c1ccc2c(c1)C1(c3cccnc3)OOC2(c2cccnc2)c2ccccc21 (stereo not drawn) [mPyBuAcEP] | 2.86 | 731 ± 111 nmol/min | higher IC50 values in the presence of the thiol NAC | clear reformation of the parent Ac compound over time | rather slow activation by iron (II) |
| increase of IC50 values | COc1ccccc1C12OOC(c3ccccc3OC)(c3ccccc31)c1ccccc12 [oOMeAcEP] | 2.73 | 545 ± 17 nmol/min | did not respond, but rather displayed even lower IC50 values |  |  |
